Measurements reported in the pKa sets of Baltruschat and Czodrowski (2020).

Conditions: acidic group

In order of rising pKa:
1. Oc1cccn[nH+]1  -1.8
2. Nc1cc(N2CCOCC2)nc(N)n1  -0.35
3. O=C1COC(=O)C1[N+](=O)[O-] (stereo not drawn)  1.68
4. [NH3+][C@@H](Cn1cccn1)C(=O)O  2.2
5. CO[n+]1ccc(O)cc1  2.57
6. CC(C)(C)C#CC(=O)O  2.66
7. O=C(O)c1nsc2ccccc12  2.76
8. Ic1nnn[nH]1  2.85
9. S=C(S)NC1CCCCC1  2.95
10. Cn1nc([N+](=O)[O-])nc1NN=O  3.22
11. O=C1NC(=O)C(c2ccccc2)C1=O (stereo not drawn)  3.4
12. Cc1cc([N+](=O)[O-])cc2c1nnn2O  3.43
13. C[C@]12C[C@H](C(=O)O)OC(=O)[C@H]1CC[C@@]1(C)[C@@H]2[C@H]2CCC1(O)C(=O)O2  3.5
14. CCCCCCCCCC[NH2+]CCC(=O)O  3.57
15. CC(C)c1ccccc1C(=O)O  3.64
16. CC(=O)c1ccc(CC(=O)O)s1  3.8
17. [NH3+]CC/C=C/C(=O)O  3.83
18. O=C(O)c1cc[nH]n1  3.84
19. Nc1nc(O)cc[nH+]1  4.01
20. Nc1ccc(S(=O)(=O)Nc2ccc(C(=O)O)cc2)cc1  4.02
21. Cc1cc(C(=O)O)ccc1Cl  4.07
22. O=C(O)c1coc2ccccc12  4.18
23. O=C(O)C(c1ccc(-c2ccccc2)cc1)C(O)c1ccccc1 (stereo not drawn)  4.25
24. NC1=NS(=O)(=O)Nc2nc[nH]c21  4.28
25. Cn1ncnc1/N=N/O  4.45
26. [NH3+][C@@H](CCC(=O)O)C(=O)[O-]  4.46
27. [NH3+]CCCCCCCCC(=O)O  4.53
28. c1ccc(-c2nn[nH]n2)cc1  4.53
29. O=C(O)CCc1ccc([N+](=O)[O-])cc1  4.54
30. O=C(O)CCc1ccccc1  4.59
31. CC(=O)C(C=O)C(C)=O  4.6
32. O=P([O-])(O)C([NH2+]Cc1cccnc1)c1ccccc1O (stereo not drawn)  5.15
33. O=C1CC(=O)CC2(CCCCC2)C1  5.2
34. C/C(=C\c1ccccc1)CC(=O)O  5.35
35. C[NH+](C)Cc1cc(F)cc(C[NH+](C)C)c1O  5.77
36. C[n+]1ccc2cc(O)ccc2c1  6.06
37. CC(c1cccc([N+](=O)[O-])c1)[N+](=O)[O-] (stereo not drawn)  6.67
38. O=c1cccccc1O  6.87
39. C[n+]1ccc2c(O)cccc2c1  6.9
40. Nc1ccc(S(=O)(=O)Nc2ccc(Br)nc2)cc1  7.12
41. OC(c1ccncc1)n1cc[nH+]c1 (stereo not drawn)  7.24
42. NC(=O)[C@@H](N)Cc1ccccc1  7.26
43. O=C([O-])C1(C(=O)O)CC1  7.31
44. Brc1ccc2c(c1)C([P+](c1ccccc1)(c1ccccc1)c1ccccc1)c1ccccc1-2 (stereo not drawn)  7.33
45. CCCCCCc1c(-c2ccccc2)nn(-c2ccccc2)c1O  7.4
46. Oc1c(Cl)cc(Cl)c2cccnc12  7.51
47. CCCCCCCCC(=O)OO  8.23
48. Cc1cccc(Cl)c1O  8.7
49. CC(=O)NCc1cc(C)cc(CNC(C)=O)c1O  9
50. O=C1CCCC1=O  9.14
51. O=[N+]([O-])c1cccc(-c2ccc(O)cc2)c1  9.14
52. O=c1[nH]cnc2[nH]ncc12  9.38
53. OCCS  9.47
54. CCCC(=O)NO  9.48
55. CCOC(=O)/C(C)=N/O  9.64
56. C[NH+](C)CCc1c[nH]c2ccc(O)cc12  9.73
57. ONc1ccc(O)cc1  9.83
58. Nc1cccc(O)c1  9.85
59. S=C(Nc1ccc(Cl)cc1)c1cccc(Br)c1  10.1
60. CN1c2ccccc2Nc2ccc(O)cc21  10.1
61. CN(C)c1ccc(O)cc1  10.2
62. NC(=O)CN(CCN(CC(N)=O)Cc1ccccc1O)Cc1ccccc1O  10.2
63. O/N=C1\CCCC\C1=N/O  10.5
64. CCCS  10.6
65. Cc1cccc(C)c1O  10.6
66. Cc1nn(C)c(O)c1-c1ccccc1  10.9
67. C/C=C/c1ccc2cccnc2c1O  11.3
68. O=C([O-])CNS(=O)(=O)c1ccccc1  11.4
69. Oc1c2c(nn1-c1ccccc1)CCCC2  11.4
70. CC(C)OO  12.1
71. CCO/C([O-])=N/c1ncnc2nc[nH]c12  12.2
72. CCCCCCCP(=O)(CCCCCCC)NC1CCCCC1  12.5
73. O=C(Cc1ccncc1)c1ccccc1  12.7
74. c1cn[nH]c1  14.2

Same assay, conditions: basic group

In order of falling pKa:
1. C1CC2CCCN2C1  11.7
2. C1CCCNCCC1  10.8
3. OCC1CC2CCN1CC2 (stereo not drawn)  10.8
4. CCNCCC(=O)[O-]  10.6
5. CN(C)[C@H]1CCCC[C@@H]1O  10.4
6. C[C@H](O)C(=O)C1=Nc2c([O-])nc(N)nc2NC1  10.1
7. CNCCNC  10.1
8. O=C([O-])[C@@H]1CCC[C@H](C(=O)[O-])N1  9.92
9. CSC(=N)N  9.83
10. C1=CN2CCC1CC2  9.82
11. CN(C)CCCO  9.76
12. CN(C)CC(C)(C)C  9.75
13. N[C@H]1CCCC[C@@H]1N  9.75
14. CC(C)(C)NC[C@H](O)COc1nsnc1N1CCOCC1  9.7
15. Cc1cc(N)c(C)cn1  9.68
16. c1ccc(C2CCCN2)cc1 (stereo not drawn)  9.6
17. CCCCCCCCCCNCc1ccc(C)cc1  9.48
18. [O-]c1ccncc1Br  9.4
19. COc1ccc(CN)cc1OC  9.39
20. CN1CCCCCCN(C)CCCCCC1  9.24
21. CC(N)CCc1ccc(O)cc1 (stereo not drawn)  9.14
22. CC(C)(C)N1NC2CCC1C2 (stereo not drawn)  9.12
23. CCCCCN(CCO)CC(O)CC (stereo not drawn)  9.1
24. COc1c(N)cccc1C(=O)N[C@@H]1C[C@H]2CC[C@@H](C1)N2Cc1ccccc1  8.86
25. CCN(CC)CCN=C(c1ccccc1C)c1ccccc1C  8.8
26. CN1CCC(NNc2ccccc2)CC1  8.7
27. COc1cccc(/N=C/N(C)C)c1  8.6
28. O=C([O-])[C@@H]1Cc2[nH]cnc2CN1  8.58
29. CC[NH+](CC)CCCC(C)Nc1cc(C)nc2cc(Cl)ccc12 (stereo not drawn)  8.52
30. C=CCN(CC(C)O)CC(C)O (stereo not drawn)  8.2
31. Cc1nc[nH]c1C  8.19
32. [NH3+]CCCNCCC[NH3+]  8.08
33. C=C(C)C(N)O (stereo not drawn)  8
34. Cc1cc(C)nc(N)c1  7.84
35. COc1cccc(CN2CC(O[Si](C)(C)C)C2)c1  7.81
36. CO[C@H]1C=CC2=CCN3CCC(CO)=C(CCO)[C@]23C1  7.8
37. CN(C)CCBr  7.55
38. Nc1nc2ccccc2[nH]1  7.49
39. Nc1ccc2cnccc2c1  7.17
40. CC(=O)/N=c1\ccccn1C  7.12
41. C#CCN(C)C  7.05
42. CC(Cc1ccccc1)N(C)CCC#N (stereo not drawn)  6.95
43. CC[C@]12CCCN3CCc4c(n(c5ccccc45)CC1)[C@@H]32  6.9
44. Cc1cc(O)cc(O)c1C(=N)c1ccccc1  6.75
45. Nc1cc(N2CCOCC2)nc(N)n1  6.73
46. CC(C)(C)c1ccnc(C(C)(C)C)c1  6.7
47. C#CC(C)(C)N(C)C(C)(C)C#C  6.65
48. c1cc2c(cn1)CCCC2  6.65
49. CCCCCCCCCCN(CC(O)CC)CC(O)CC (stereo not drawn)  6.6
50. Cc1cc(N)nc(Nc2ccc(Cl)cc2)n1  6.6
51. NC(=O)CN(CCN(CC(N)=O)Cc1ccccc1O)Cc1ccccc1O  6.54
52. CCCCCCCCCCCCCCN(CCO)CC(C)O (stereo not drawn)  6.3
53. CCCCCNN  6.25
54. CCn1nc(-c2ccccc2)sc1=N  6.1
55. CCOc1ccc2[nH]c(CC(C)C)nc2c1  6.07
56. COc1cc(O)ccc1C(=N)c1ccccc1  5.99
57. CCc1ccncc1  5.94
58. OCCCc1ccncc1  5.9
59. C[NH+]1CCC(NN)CC1  5.7
60. CC(C)Nc1ccccc1  5.67
61. Cc1ccc(N(C)C)cc1  5.56
62. CCNc1nc(N)nc(NCC)n1  5.52
63. Cc1csc2nccn12  5.36
64. c1ccc(C2NCCS2)cc1 (stereo not drawn)  5.2
65. Cc1cc(C)c2ccccc2n1  5.11
66. CC1CC(=O)CC(=O)O1 (stereo not drawn)  5.1
67. COCCNc1ccc(OC)cc1  5.02
68. CCCCCCCP(=O)(CCCCCCC)NC1CCCCC1  4.87
69. Cc1nn(C)c2c1C(c1ccccc1F)=NCC(=O)N2C  4.69
70. C/C=C/c1ccc2cccnc2c1O  4.66
71. O=C(Cc1ccncc1)c1ccccc1  4.63
72. O=[N+]([O-])c1cccc(C2NCCS2)c1 (stereo not drawn)  4.63
73. COc1ccccc1/C(=N/CCC[NH+](C)C)c1ccccc1  4.62
74. Nc1cc[nH+]c([O-])n1  4.61
75. Cc1n[nH]c2c(Nc3ccccc3)ncnc12  4.61
76. Nc1ccc2nc3ccccc3nc2c1  4.52
77. O=C(Cc1ccc2ccc3cccnc3c2n1)c1ccccc1  4.4
78. Nc1cccc(O)c1  4.29
79. Brc1cc2cccnc2c2ncccc12  4.2
80. Cc1ccnc(N)n1  4.2
81. CC(C)(C)CNc1ccccc1  4.17
82. OC[C@@H]1O[C@H](n2cnc3c2ncn2ccnc32)[C@@H](O)[C@H]1O  4.1
83. CCOP(=O)(CN1CCOCC1)OCC  4
84. O=C([O-])[C@@H]1O[C@H](Oc2cnc3ccccc3c2)[C@@H](O)[C@H](O)[C@H]1O  3.95
85. COC(=O)c1ccc2ncccc2c1  3.8
86. Cc1ccc(N)cc1-c1cc([NH3+])ccc1C  3.8
87. CC(C)(C)CC(=O)n1ccnc1  3.8
88. Cc1cc(N)ccc1-c1ccc([NH3+])cc1C  3.7
89. CSc1ccc(N)cc1I  3.44
90. C[NH+](C)c1ccc(/N=N/c2ccncc2)cc1  3.4
91. CCOC(=O)c1cccnc1  3.2
92. CC(=O)n1cccn1  3.16
93. O=P([O-])(O)C([NH2+]Cc1cccnc1)c1ccccc1O (stereo not drawn)  3.14
94. Oc1c(Cl)cc(Cl)c2cccnc12  2.89
95. c1cn[nH]c1  2.61
96. CN(C)c1cccc([N+](=O)[O-])c1  2.58
97. Cc1cc(-c2[nH]cc[nH+]2)nn1C  2
98. Cn1nnnc1N  1.82
99. Nc1ncc(S(=O)(=O)c2ccccc2)s1  1.79
100. CN(C)c1ccc(C=O)cc1  1.6
101. CCOC(=O)c1cc(-c2ccccc2)nnc1NCC[NH+]1CCOCC1  1.5
102. C=O  1.15
103. CN1c2ccccc2Nc2ccc(O)cc21  1
104. Cc1ccc(-c2cnc(-c3ccccc3)o2)cc1  0.91
105. Cc1ccc(-c2ncc(-c3ccc(Br)cc3)o2)cc1  0.87
106. NC1=NS(=O)(=O)Nc2nc[nH]c21  0.28
107. CSc1cnc2ccccc2n1  0.26
108. [NH3+]c1ccc(-c2nc3ccccc3s2)cc1  0.1
109. Cc1cc(-c2cccc[nH+]2)nn1C  -1.6
